Data as given in patent US8685934B2, “Methods for treating extreme insulin resistance in patients resistant to previous treatment with other anti-diabetic drugs employing an SGLT2 inhibitor and compositions thereof” (Bristol-Myers Squibb Company, priority 2009, dated 2014).
Like-named read-outs stand apart in the source and are kept apart here.

Tested on: highly insulin-resistant T2DM patients poorly controlled with insulin plus metformin and/or thiazolidinediones
Settings: for Total daily insulin dose, mean (SD), End of Double-blind (Week 12 LOCF) / Total daily insulin dose, change from baseline, mean (95% CI): includes data after insulin up-titration; for Total daily insulin dose, mean (SD), End of Double-blind (Week 12 LOCF): U = units of U100 insulin; for Postprandial glucose, mean (SD), End of Double-blind (Week 12 LOCF): measured at 120 minutes by OGTT; for Postprandial glucose, change from baseline, mean (95% CI): 120 minutes by OGTT; for Fasting plasma glucose, change from baseline, mean (95% CI) / HbA1c, change from baseline, mean (95% CI) / Weight, change from baseline, mean (95% CI) / Total daily insulin dose, change from baseline, mean (95% CI): ANCOVA-adjusted
Protocol: Criteria for management of hyperglycemia were determined by fasting plasma glucose (FPG) measurements. For any FPG level >240 mg/dL at weeks 4 and 6, >220 mg/dL at week 8, or >200 mg/dL at week 10, the patient would be scheduled for a follow-up visit in 3 to 5 days. If FPG was still above the threshold at follow-up, a visit was scheduled in order to increase the insulin dose as clinically indicated. Patients who further lacked glycemic control despite up-titration, or whose modified insulin dose exceeded baseline, were discontinued from blinded treatment and entered into follow-up.
All patients were on insulin-sensitizer therapy for at least 6 weeks prior to enrollment and insulin-based therapy for at least 12 weeks prior to enrollment. The study protocol defined insulin-sensitizer therapy as metformin (stable dose ≧1000 mg) and/or pioglitazone (stable dose ≧30 mg) or rosiglitazone (stable dose 4 mg). Insulin-based therapy was defined as subcutaneous insulin for at least 12 weeks prior to enrollment, with 2 minimum insulin daily dose equivalent to 50 units (median 85 to 93 units across all study arms) of U100 insulin per day. The insulin regimen must have been stable for at least 6 weeks. In addition to 10 mg dapagliflozin or 20 mg dapagliflozin daily or placebo, 74.6% of patients received metformin (≧1000 mg daily) plus insulin; 16.9% of patients received metformin (≧1000 mg daily) plus pioglitazone (≧30 mg daily) or rosiglitazone (4 mg daily) plus insulin and 8.5% of patients received pioglitazone (≧30 mg daily) or rosiglitazone (4 mg daily) plus insulin.
Patients in Cohort 1 were evaluated for safety only. Patients in Cohort 2 were evaluated for safety and efficacy. The primary efficacy measure was change from baseline in HbAlc, at week 12, last observation carried forward (LOCF). If no week 12 assessment was available, the last observation prior to week 12 was used. Secondary efficacy measures included changes from baseline at week 12 (LOCF) in FPG and insulin dose, the proportion of patients achieving a decrease in HbAlc>0.5% from baseline at week 12 (LOCF), and the proportion of patients achieving HbAlc<7% at week 12 (LOCF). Tertiary endpoints included changes from baseline in total body weight and in postprandial glucose (PPG) measured by an oral glucose tolerance test (OGTT).
Patients in Cohort 2 were evaluated for safety and efficacy. The primary efficacy measure was change from baseline in HbAlc at week 12, last observation carried forward (LOCF). The analysis was done excluding data after up-titration of insulin. If no week 12 assessment was available, the last observation prior to week 12 was used.
For Cohort 2, the sample size target of 22 patients per treatment group was chosen to allow for the calculation of 95% confidence intervals for the primary endpoint with a half-width of 0.42% for each treatment group. This assumed a 1% standard deviation for the primary endpoint in each of the dapagliflozin and placebo arms. With the same assumption, the half-width of a 95% confidence interval for the difference between any two treatment mean changes was estimated to be 0.59%. The primary efficacy data set consisted of all randomized patients who took at least one dose of double-blind study medication during the treatment phase. The analyses of the efficacy variables (except change from baseline in insulin dose) were done excluding data after up-titration of insulin. The analyses for changes from baseline in HbAlc, FPG, insulin dose, and total body weight at week 12 (LOCF) were performed using an analysis of covariance (ANCOVA) model with treatment group as an effect and baseline value as a covariate. Point estimates and 95% confidence intervals were calculated for mean changes within each treatment group and for differences in mean changes between the dapagliflozin and placebo groups.

[1] = Dapagliflozin 10 mg + insulin + OAD, excludes data after insulin up-titration
[2] = Dapagliflozin 10 mg + insulin + OAD, week 12 LOCF
[3] = Dapagliflozin 10 mg + insulin + OAD, week 12 LOCF, excludes data after insulin up-titration
[4] = Dapagliflozin 10 mg + insulin + OAD, week 12 LOCF, excludes data after insulin up-titration, listed as dapagliflozin
[5] = Dapagliflozin 10 mg + insulin + OAD, week 12 LOCF, of 23 patients, excludes data after insulin up-titration
[6] = Dapagliflozin 20 mg + insulin + OAD, excludes data after insulin up-titration
[7] = Dapagliflozin 20 mg + insulin + OAD, week 12 LOCF
[8] = Dapagliflozin 20 mg + insulin + OAD, week 12 LOCF, excludes data after insulin up-titration
[9] = Dapagliflozin 20 mg + insulin + OAD, week 12 LOCF, excludes data after insulin up-titration, listed as dapagliflozin

CCOc1ccc(Cc2cc([C@@H]3O[C@H](CO)[C@@H](O)[C@H](O)[C@H]3O)ccc2Cl)cc1 [Dapagliflozin, (2S,3R,4R,5S,6R)-2-(4-chloro-3-(4-ethoxybenzyl)phenyl)-6-(hydroxymethyl)tetrahydro-2H-pyran-3,4,5-triol]
Reductions in HbAlc and improvements over placebo in FPG and PPG, dose relation, in words (10 and 20 mg dapagliflozin): dose-dependent
Change from baseline in total daily insulin dose, in words (Cohort 2, week 12): no appreciable change
Fasting plasma glucose, mean (SD), End of Double-blind (Week 12 LOCF) [1]: 160.5 (38.7) mg/dL
Weight, mean (SD), End of Double-blind (Week 12 LOCF) [1]: 98.2 (9.4) kg
Total daily insulin dose, mean (SD), End of Double-blind (Week 12 LOCF) (Dapagliflozin 10 mg + insulin + OAD): 51.3 (20.1) U
Postprandial glucose, mean (SD), End of Double-blind (Week 12 LOCF) [1]: 286.0 (55.1) mg/dL
Fasting plasma glucose change from baseline, difference vs placebo + insulin + OAD, mean (95% CI) [2]: −15.4 (−38.4 to 7.5) mg/dL
HbA1c change from baseline, difference vs placebo + insulin + OAD, mean (95% CI) [2]: −0.70 (−1.08 to −0.32) %
Patients with ↓ HbA1c ≧ 0.5%, difference in proportions vs placebo + insulin + OAD (95% CI) [2]: 49.4 (20.1 to 72.4) %
Total daily insulin dose change from baseline, difference vs placebo + insulin + OAD, mean (95% CI) [2]: −3.1 (−10.7 to 4.6) U
Weight change from baseline, difference vs placebo + insulin + OAD, mean (95% CI) [2]: −2.6 (−4.0 to −1.2) kg
Postprandial glucose, change from baseline, mean (95% CI) [3]: −34.3 (−67.5 to −1.1) mg/dL
Fasting plasma glucose, change from baseline, mean (95% CI) [3]: 2.4 (−13.6 to 18.3) mg/dL
HbA1c, change from baseline, mean (95% CI) [3]: −0.61 (−0.87 to −0.36) %
Weight, change from baseline, mean (95% CI) [3]: −4.5 (−5.5 to −3.5) kg
Fasting plasma glucose, change from baseline, mean (95% CI) [4]: 2.4 mg/dL
Weight, change from baseline, mean (95% CI) [4]: -4.5 kg
Total daily insulin dose, change from baseline, mean (95% CI) [2]: −1.4 (−6.6 to 3.9) U
Patients with HbA1c < 7.0%, (%), response [3]: 13.0%
Patients with ↓ HbA1c ≧ 0.5%, (%), response [3]: 65.2%
HbA1c change from baseline, difference vs placebo + insulin + OAD, mean (95% CI) (Dapagliflozin 10 mg + insulin + OAD, week 12 LOCF, listed as dapagliflozin): −0.70%
Patients with HbA1c < 7.0%, No., response [5]: 3
Patients with ↓ HbA1c ≧ 0.5%, No., response [5]: 15
HbA1c, mean (SD), End of Double-blind (Week 12 LOCF) (Dapagliflozin 10 mg once daily + insulin (50% of usual dose) + OAD, Cohort 2, excludes data after insulin up-titration): 7.8 (0.7) %
Fasting plasma glucose, mean (SD), End of Double-blind (Week 12 LOCF) [6]: 149.4 (32.0) mg/dL
Weight, mean (SD), End of Double-blind (Week 12 LOCF) [6]: 97.8 (14.1) kg
Total daily insulin dose, mean (SD), End of Double-blind (Week 12 LOCF) (Dapagliflozin 20 mg + insulin + OAD): 53.5 (32.1) U
Postprandial glucose, mean (SD), End of Double-blind (Week 12 LOCF) [6]: 272.6 (51.2) mg/dL
Fasting plasma glucose change from baseline, difference vs placebo + insulin + OAD, mean (95% CI) [7]: −27.4 (−50.3 to −4.6) mg/dL
HbA1c change from baseline, difference vs placebo + insulin + OAD, mean (95% CI) [7]: −0.78 (−1.16 to −0.40) %
Patients with ↓ HbA1c ≧ 0.5%, difference in proportions vs placebo + insulin + OAD (95% CI) [7]: 49.4 (20.1 to 72.4) %
Total daily insulin dose change from baseline, difference vs placebo + insulin + OAD, mean (95% CI) [7]: −2.5 (−10.2 to 5.1) U
Weight change from baseline, difference vs placebo + insulin + OAD, mean (95% CI) [7]: −2.4 (−3.8 to −1.0) kg
Postprandial glucose, change from baseline, mean (95% CI) [8]: −41.9 (−74.8 to −8.9) mg/dL
Fasting plasma glucose, change from baseline, mean (95% CI) [8]: −9.6 (−25.6 to 6.3) mg/dL
HbA1c, change from baseline, mean (95% CI) [8]: −0.69 (−0.94 to −0.43) %
Weight, change from baseline, mean (95% CI) [8]: −4.3 (−5.3 to −3.3) kg
Fasting plasma glucose, change from baseline, mean (95% CI) [9]: -9.6 mg/dL
Weight, change from baseline, mean (95% CI) [9]: -4.3 kg
Total daily insulin dose, change from baseline, mean (95% CI) [7]: −0.8 (−6.1 to 4.5) U
Patients with HbA1c < 7.0%, (%), response [8]: 4.3%
Patients with ↓ HbA1c ≧ 0.5%, (%), response [8]: 65.2%
HbA1c change from baseline, difference vs placebo + insulin + OAD, mean (95% CI) (Dapagliflozin 20 mg + insulin + OAD, week 12 LOCF, listed as dapagliflozin): −0.78%
Patients with HbA1c < 7.0%, No., response (Dapagliflozin 20 mg + insulin + OAD, week 12 LOCF, of 23 patients, excludes data after insulin up-titration): 1
